pEC50, pIC50: −log10 of the molar value. Where two headings read alike, the source gives them in different places.
Tests used:
human mOR = human mOR (Homo sapiens (Human), UniProt P35372); experiment: cell-based
human dOR = human dOR (Homo sapiens (Human), UniProt P41143); experiment: cell-based; conditions: dOR cAMP Agonist Assay EC50, CHO Tag-lite human dOR stable cell line; forskolin
kOR (OPRK1) = kOR (OPRK1) (Homo sapiens (Human), UniProt P41145); experiment: KOR β-Arrestin antagonist assay (Tango OPRK1-bla U2OS cells); type: cell-based
Text: KOR β-Arrestin Agonist and Antagonist assays were preformed using the Tango™ OPRK1-bla U2OS cells from Invitrogen and purchased from ThermoFisher, catalog number K1576.

[1] = CHO Tag-lite human mOR stable cell line, forskolin 4 μM and DAMGO at EC90, read-out: mOR cAMP Antagonist Assay IC50

Sequence of kOR (OPRK1) (P41145 whole entry): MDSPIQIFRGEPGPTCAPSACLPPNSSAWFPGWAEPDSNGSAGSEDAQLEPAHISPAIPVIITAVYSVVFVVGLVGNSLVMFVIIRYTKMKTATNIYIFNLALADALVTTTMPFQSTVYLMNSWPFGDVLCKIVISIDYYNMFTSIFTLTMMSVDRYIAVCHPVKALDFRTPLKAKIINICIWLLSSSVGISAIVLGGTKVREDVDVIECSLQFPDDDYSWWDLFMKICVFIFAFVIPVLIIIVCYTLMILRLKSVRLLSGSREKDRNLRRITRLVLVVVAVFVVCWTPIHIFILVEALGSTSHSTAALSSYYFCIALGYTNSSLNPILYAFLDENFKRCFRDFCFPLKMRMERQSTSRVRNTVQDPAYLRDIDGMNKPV
Sequence of human dOR (P41143 whole entry): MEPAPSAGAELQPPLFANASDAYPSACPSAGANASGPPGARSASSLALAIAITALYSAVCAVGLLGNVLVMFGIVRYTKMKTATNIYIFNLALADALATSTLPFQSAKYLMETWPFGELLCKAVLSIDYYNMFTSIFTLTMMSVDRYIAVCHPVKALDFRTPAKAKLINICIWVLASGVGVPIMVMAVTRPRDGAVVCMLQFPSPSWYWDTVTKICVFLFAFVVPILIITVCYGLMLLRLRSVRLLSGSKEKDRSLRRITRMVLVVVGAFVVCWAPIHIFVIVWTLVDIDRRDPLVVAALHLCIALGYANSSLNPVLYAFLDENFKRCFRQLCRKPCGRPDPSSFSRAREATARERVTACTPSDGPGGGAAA
Sequence of human mOR (P35372 whole entry): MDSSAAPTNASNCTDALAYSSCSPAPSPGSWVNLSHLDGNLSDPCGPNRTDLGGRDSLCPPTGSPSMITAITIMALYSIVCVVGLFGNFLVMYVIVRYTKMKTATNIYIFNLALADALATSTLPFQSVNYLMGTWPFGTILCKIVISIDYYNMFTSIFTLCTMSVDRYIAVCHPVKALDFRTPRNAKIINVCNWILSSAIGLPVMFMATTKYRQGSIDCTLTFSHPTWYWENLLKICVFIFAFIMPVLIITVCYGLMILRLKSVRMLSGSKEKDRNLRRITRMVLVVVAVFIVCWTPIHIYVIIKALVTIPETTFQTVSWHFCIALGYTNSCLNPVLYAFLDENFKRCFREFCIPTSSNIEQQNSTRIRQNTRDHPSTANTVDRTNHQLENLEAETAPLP

SMILES	pIC50 (human mOR; [1])	pEC50 (human dOR)	pIC50 (kOR (OPRK1))	pIC50 (human mOR)
Cc1cc(C(N)=O)cc(C)c1C[C@@H](CNC(=O)C[C@@H](c1ccccc1)C1(C(F)(F)F)CC1)N(C)C [Compound 7, 4-((S)-2-(dimethylamino)-3-((S)-3-phenyl-3-(1-(trifluoromethyl)cyclopropyl)propanamido)propyl)-3,5-dimethylbenzamide]	< 5.52	> 6.52	> 6.52	–
Cc1cc(C(N)=O)cc(C)c1C[C@@H](CNC(=O)C[C@H](c1ccccc1)C1(C(F)(F)F)CC1)N(C)C [Compound 8, 4-((S)-2-(dimethylamino)-3-((R)-3-phenyl-3-(1-(trifluoromethyl)cyclopropyl)propanamido)propyl)-3,5-dimethylbenzamide]	< 5.52	< 5.52	> 6.52	–
Cc1cc(C(N)=O)cc(C)c1C[C@@H](CNC(=O)C[C@@H](c1ccccc1)C(C)C)N(C)C [Compound 10, 4-((S)-2-(dimethylamino)-3-((R)-4-methyl-3-phenylpentanamido)propyl)-3,5-dimethylbenzamide]	–	< 5.52	> 6.52	> 6.52
Cc1cc(C(N)=O)cc(C)c1C[C@@H](CNC(=O)C[C@@H](c1ccccc1)C1CC1)N(C)C [Compound 11, 4-((S)-3-((R)-3-cyclopropyl-3-phenylpropanamido)-2-(dimethylamino)propyl)-3,5-dimethylbenzamide]	–	< 5.52	> 6.52	> 6.52
Cc1cc(C(N)=O)cc(C)c1C[C@@H](CNC(=O)C[C@@H](CC(C)C)c1ccccc1)N(C)C [Compound 12, 4-[(2S)-2-(dimethylamino)-3-[(3R)-5-methyl-3-phenylhexanamido]propyl]-3,5-dimethylbenzamide]	–	< 5.52	> 6.52	> 6.52
Cc1ccc([C@@H](CC(=O)NC[C@H](Cc2ccc(C(N)=O)c(F)c2Cl)N(C)C)C2(C(F)(F)F)CC2)cn1 [Compound 20, 3-chloro-4-((S)-2-(dimethylamino)-3-((R)-3-(6-methylpyridin-3-yl)-3-(1-(trifluoromethyl)cyclopropyl)propanamido)propyl)-2-fluorobenzamide]	> 6.52	5.52 to 6.52	> 6.52	–
Cc1ncc([C@@H](CC(=O)NC[C@H](Cc2ccc(C(N)=O)c(F)c2Cl)N(C)C)C2(C(F)(F)F)CC2)cn1 [Compound 21, 3-chloro-4-[(2S)-2-(dimethylamino)-3-[(3R)-3-(2-methylpyrimidin-5-yl)-3-[1-(trifluoromethyl)cyclopropyl]propanamido]propyl]-2-fluorobenzamide]	–	5.52 to 6.52	> 6.52	> 6.52
CN(C)[C@H](CNC(=O)C[C@H](c1ccccc1)C1(C(F)(F)F)CC1)Cc1ccc(C(N)=O)cc1Cl [Compound 39, 3-chloro-4-[(2S)-2-(dimethylamino)-3-[(3R)-3-phenyl-3-[1-(trifluoromethyl)cyclopropyl]propanamido]propyl]benzamide]	–	< 5.52	> 6.52	> 6.52
Cc1ncc([C@@H](CC(=O)NC[C@H](Cc2ccc(C(N)=O)c(F)c2)N(C)C)C2(C(F)(F)F)CC2)cn1 [Compound 68, 4-((S)-2-(dimethylamino)-3-((R)-3-(2-methylpyrimidin-5-yl)-3-(1-(trifluoromethyl)cyclopropyl)propanamido)propyl)-2-fluorobenzamide]	–	< 5.52	> 6.52	> 6.52
CN(C)[C@H](CNC(=O)C[C@H](c1ccccc1)C1(C(F)(F)F)CC1)Cc1ccc(C(N)=O)c(F)c1 [Compound 77, 4-((S)-2-(dimethylamino)-3-((R)-3-phenyl-3-(1-(trifluoromethyl)cyclopropyl)propanamido)propyl)-2-fluorobenzamide]	–	< 5.52	> 6.52	> 6.52
CN(C)[C@H](CNC(=O)C[C@H](c1ccc(Cl)c(Cl)c1)C1(C(F)(F)F)CC1)Cc1ccc(C(N)=O)cc1 [Compound 80, 4-((S)-3-((R)-3-(3,4-dichlorophenyl)-3-(1-(trifluoromethyl)cyclopropyl)propanamido)-2-(dimethylamino)propyl)benzamide]	–	> 6.52	> 6.52	> 6.52
CN[C@H](CNC(=O)C[C@H](c1ccccc1)C1(C(F)(F)F)CC1)Cc1ccc(C(N)=O)cc1 [Compound 85, 4-[(2S)-2-(methylamino)-3-[(3R)-3-phenyl-3-[1-(trifluoromethyl)cyclopropyl]propanamido]propyl]benzamide]	–	–	> 6.52	> 6.52
CN(C)[C@H](CNC(=O)C[C@@H](c1ccccc1)C1(C(F)(F)F)CC1)Cc1ccc(C(N)=O)cc1 [Compound 88, 4-[(2S)-2-(dimethylamino)-3-[(3S)-3-phenyl-3-[1-(trifluoromethyl)cyclopropyl]propanamido]propyl]benzamide]	–	> 6.52	> 6.52	> 6.52
CN(C)[C@H](CNC(=O)C[C@H](c1ccccc1)C1(C(F)(F)F)CC1)Cc1ccc(C(N)=O)cc1 [Compound 89, 4-[(2S)-2-(dimethylamino)-3-[(3R)-3-phenyl-3-[1-(trifluoromethyl)cyclopropyl]propanamido]propyl]benzamide]	–	> 6.52	> 6.52	> 6.52
CN(C)[C@H](CNC(=O)C[C@H](CC1CCC1)c1ccccc1)Cc1ccc(C(N)=O)cc1 [Compound 90, 4-[(2S)-3-[(3S)-4-cyclobutyl-3-phenylbutanamido]-2-(dimethylamino)propyl]benzamide]	–	> 6.52	> 6.52	> 6.52
CC(C)C[C@@H](CC(=O)NC[C@H](Cc1ccc(C(N)=O)cc1)N(C)C)c1ccccc1 [Compound 91, 4-[(2S)-2-(dimethylamino)-3-[(3S)-5-methyl-3-phenylhexanamido]propyl]benzamide]	–	> 6.52	> 6.52	> 6.52
CC(C)C[C@H](CC(=O)NC[C@H](Cc1ccc(C(N)=O)cc1)N(C)C)c1ccccc1 [Compound 96, 4-((S)-2-(dimethylamino)-3-((R)-5-methyl-3-phenylhexanamido)propyl)benzamide]	–	> 6.52	> 6.52	> 6.52
CN(C)[C@H](CNC(=O)C[C@@H](c1ccccc1)C1CC1)Cc1ccc(C(N)=O)cc1 [Compound 97, 4-((S)-3-((R)-3-cyclopropyl-3-phenylpropanamido)-2-(dimethylamino)propyl)benzamide]	–	> 6.52	> 6.52	> 6.52
CNC(=O)c1ccc(C[C@@H](CNC(=O)C[C@H](c2cc(F)cc(F)c2)C2(C(F)(F)F)CC2)N(C)C)c(C)c1 [Compound 136, 4-((S)-3-((R)-3-(3,5-difluorophenyl)-3-(1-(trifluoromethyl)cyclopropyl)propanamido)-2-(dimethylamino)propyl)-N,3-dimethylbenzamide]	–	5.52 to 6.52	> 6.52	> 6.52
CNC(=O)c1ccc(C[C@@H](CNC(=O)CC(c2ccccn2)C2(C(F)(F)F)CC2)N(C)C)c(C)c1 (stereo partly drawn) [Compound 141, 4-((2S)-2-(dimethylamino)-3-(3-(pyridin-2-yl)-3-(1-(trifluoromethyl)cyclopropyl)propanamido)propyl)-N,3-dimethylbenzamide]	–	–	> 6.52	> 6.52
CNC(=O)c1ccc(C[C@@H](CNC(=O)C[C@H](c2ccc(Cl)cc2)C2(C(F)(F)F)CC2)N(C)C)c(C)c1 [Compound 142, 4-((S)-3-((R)-3-(4-chlorophenyl)-3-(1-(trifluoromethyl)cyclopropyl)propanamido)-2-(dimethylamino)propyl)-N,3-dimethylbenzamide]	–	< 5.52	> 6.52	> 6.52
CNC(=O)c1ccc(C[C@@H](CNC(=O)C[C@H](c2ccccc2)C2(C(F)(F)F)CC2)N(C)C)c(C)c1 [Compound 143, 4-((S)-2-(dimethylamino)-3-((R)-3-phenyl-3-(1-(trifluoromethyl)cyclopropyl)propanamido)propyl)-N,3-dimethylbenzamide]	–	< 5.52	> 6.52	> 6.52
CN(C)[C@H](CNC(=O)C[C@@H](c1ccccc1)C1CC1)Cc1ccc2[nH]ncc2c1 [Compound 226, (3R)-3-cyclopropyl-N-[(2S)-2-(dimethylamino)-3-(1H-indazol-5-yl)propyl]-3-phenylpropanamide]	> 6.52	5.52 to 6.52	> 6.52	–
CN(C)[C@H](CNC(=O)C[C@H](c1ccccc1)C1CC1)Cc1ccc2[nH]ncc2c1 [Compound 227, (3S)-3-cyclopropyl-N-[(2S)-2-(dimethylamino)-3-(1H-indazol-5-yl)propyl]-3-phenylpropanamide]	> 6.52	5.52 to 6.52	5.52 to 6.52	–
CN(C)[C@H](CNC(=O)C[C@H](c1cccnc1)C1(C(F)(F)F)CC1)Cc1ccc(O)cc1C(F)(F)F [Compound 255, (R)-N-((S)-2-(dimethylamino)-3-(4-hydroxy-2-(trifluoromethyl)phenyl)propyl)-3-(pyridin-3-yl)-3-(1-(trifluoromethyl)cyclopropyl) propanamide]	–	–	< 5.52	> 6.52
COc1ccc(C(CC(=O)NC[C@H](Cc2ccc(O)cc2C)N(C)C)C2(C(F)(F)F)CC2)cn1 (stereo partly drawn) [Compound 273, N-((S)-2-(dimethylamino)-3-(4-hydroxy-2-methylphenyl)propyl)-3-(6-methoxypyridin-3-yl)-3-(1-(trifluoromethyl)cyclopropyl) propanamide]	–	–	> 6.52	> 6.52
Cc1cc(O)cc(C)c1C[C@@H](CNC(=O)CC(c1cccnc1)C1(C(F)(F)F)CC1)N(C)C (stereo partly drawn) [Compound 316, N-((S)-2-(dimethylamino)-3-(4-hydroxy-2,6-dimethylphenyl)propyl)-3-(pyridin-3-yl)-3-(1-(trifluoromethyl)cyclopropyl)propanamide]	–	–	> 6.52	> 6.52
